Where two headings read alike, the source gives them in different places.
Tests used:
[1] = biological target: T1, 5-HT2c receptor (Homo sapiens, UniProt P28335); assay: Affinity for 5-HT2c receptor; type: binding
T1 sequence (P28335 33-458): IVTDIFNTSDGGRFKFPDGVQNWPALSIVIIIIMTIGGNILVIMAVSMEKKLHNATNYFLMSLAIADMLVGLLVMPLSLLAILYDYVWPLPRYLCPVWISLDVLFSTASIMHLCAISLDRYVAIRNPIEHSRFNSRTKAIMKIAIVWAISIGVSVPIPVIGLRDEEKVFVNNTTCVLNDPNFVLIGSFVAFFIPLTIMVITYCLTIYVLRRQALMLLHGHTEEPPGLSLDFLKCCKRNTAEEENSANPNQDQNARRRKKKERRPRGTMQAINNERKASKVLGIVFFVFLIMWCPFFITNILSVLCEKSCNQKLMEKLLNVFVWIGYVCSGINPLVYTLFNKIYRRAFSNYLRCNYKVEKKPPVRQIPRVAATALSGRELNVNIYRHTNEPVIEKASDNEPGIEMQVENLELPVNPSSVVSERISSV

[2] = biological target: 5-HT2 receptor (Homo sapiens, UniProt P28223); assay: Affinity for 5-HT2 receptors; type: binding
Chain of 5-HT2 receptor (P28223 whole entry): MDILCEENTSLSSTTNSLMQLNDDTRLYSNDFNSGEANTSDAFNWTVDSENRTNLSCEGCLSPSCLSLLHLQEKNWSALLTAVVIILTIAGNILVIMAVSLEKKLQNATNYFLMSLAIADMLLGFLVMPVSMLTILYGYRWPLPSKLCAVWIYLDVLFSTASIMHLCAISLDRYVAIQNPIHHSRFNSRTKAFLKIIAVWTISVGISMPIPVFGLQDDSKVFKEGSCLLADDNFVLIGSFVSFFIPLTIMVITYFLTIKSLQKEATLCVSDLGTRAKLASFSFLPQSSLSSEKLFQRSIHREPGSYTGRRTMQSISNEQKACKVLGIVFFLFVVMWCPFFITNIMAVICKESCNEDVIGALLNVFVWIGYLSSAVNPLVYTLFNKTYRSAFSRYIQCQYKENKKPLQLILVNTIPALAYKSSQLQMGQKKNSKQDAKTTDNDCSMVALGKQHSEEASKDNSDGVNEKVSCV

[3] = biological target: dopamine D2 receptor (Homo sapiens, UniProt P14416); assay: Affinity for dopamine D2 receptor; type: binding
Chain of dopamine D2 receptor (P14416 whole entry, species assumed): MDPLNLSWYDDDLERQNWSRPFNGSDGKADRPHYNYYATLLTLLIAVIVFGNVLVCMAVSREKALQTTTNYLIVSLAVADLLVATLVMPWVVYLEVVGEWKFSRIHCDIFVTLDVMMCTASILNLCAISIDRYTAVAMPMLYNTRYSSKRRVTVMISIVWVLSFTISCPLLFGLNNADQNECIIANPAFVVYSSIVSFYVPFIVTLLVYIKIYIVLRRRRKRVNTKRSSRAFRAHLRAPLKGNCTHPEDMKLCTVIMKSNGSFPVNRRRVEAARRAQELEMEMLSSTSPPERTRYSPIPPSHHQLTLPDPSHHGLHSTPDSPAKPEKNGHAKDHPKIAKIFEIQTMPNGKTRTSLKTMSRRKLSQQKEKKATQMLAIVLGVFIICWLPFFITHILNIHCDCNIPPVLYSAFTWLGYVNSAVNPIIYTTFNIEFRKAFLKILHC

[4] = biological target: serotonin transporter (Homo sapiens, UniProt P31645); assay: Affinity for serotonin transporter; type: binding
Chain of serotonin transporter (P31645 whole entry): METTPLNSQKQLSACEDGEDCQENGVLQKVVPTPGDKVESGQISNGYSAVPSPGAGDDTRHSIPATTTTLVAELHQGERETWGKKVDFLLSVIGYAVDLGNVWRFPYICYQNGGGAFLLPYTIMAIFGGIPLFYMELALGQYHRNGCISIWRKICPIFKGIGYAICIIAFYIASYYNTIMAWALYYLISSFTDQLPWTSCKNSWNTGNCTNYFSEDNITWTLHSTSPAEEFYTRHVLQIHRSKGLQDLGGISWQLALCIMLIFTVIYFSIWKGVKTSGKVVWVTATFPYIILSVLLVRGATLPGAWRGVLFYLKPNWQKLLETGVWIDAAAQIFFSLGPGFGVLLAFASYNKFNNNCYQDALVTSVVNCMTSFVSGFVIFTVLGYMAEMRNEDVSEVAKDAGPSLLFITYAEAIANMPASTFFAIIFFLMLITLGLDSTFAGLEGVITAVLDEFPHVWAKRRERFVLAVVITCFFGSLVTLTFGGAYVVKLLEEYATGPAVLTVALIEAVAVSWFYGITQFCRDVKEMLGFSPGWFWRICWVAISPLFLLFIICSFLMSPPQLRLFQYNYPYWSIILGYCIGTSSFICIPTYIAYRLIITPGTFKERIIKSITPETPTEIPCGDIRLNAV

[5] = biological target: norepinephrine transporter (Homo sapiens, UniProt P23975); assay: Affinity for norepinephrine transporter; type: binding
Chain of norepinephrine transporter (P23975 whole entry, species assumed): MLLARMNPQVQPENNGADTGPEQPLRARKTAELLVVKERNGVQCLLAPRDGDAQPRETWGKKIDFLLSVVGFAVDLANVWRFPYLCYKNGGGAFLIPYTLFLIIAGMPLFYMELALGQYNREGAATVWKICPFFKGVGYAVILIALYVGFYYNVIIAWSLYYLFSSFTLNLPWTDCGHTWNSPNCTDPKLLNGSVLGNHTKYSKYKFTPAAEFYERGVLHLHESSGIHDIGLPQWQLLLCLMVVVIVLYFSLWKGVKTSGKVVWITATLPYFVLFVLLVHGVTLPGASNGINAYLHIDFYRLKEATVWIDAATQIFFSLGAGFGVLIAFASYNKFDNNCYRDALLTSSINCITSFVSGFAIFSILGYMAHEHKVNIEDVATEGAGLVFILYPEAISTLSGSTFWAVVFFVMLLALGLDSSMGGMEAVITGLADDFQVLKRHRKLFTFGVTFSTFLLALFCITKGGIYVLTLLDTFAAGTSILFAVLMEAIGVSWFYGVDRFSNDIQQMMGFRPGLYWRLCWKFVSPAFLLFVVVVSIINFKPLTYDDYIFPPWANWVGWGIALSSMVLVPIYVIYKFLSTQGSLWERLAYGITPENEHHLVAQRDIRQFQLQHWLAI

[6] = biological target: 5-HT2A serotonin receptor (Homo sapiens, UniProt P28223); assay: 5-HT2A serotonin receptor radioligand binding assay (3H-ketanserin)
Chain of 5-HT2A serotonin receptor (P28223 whole entry): as the sequence (P28223 whole entry) above
Experimental: Binding assays were conducted in which the affinity of each of the compounds of interest for the 5-HT2A serotonin receptor was tested. Assays were conducted with the 5-HT2A receptor in buffer consisting of 50 mM Tris-Cl, 0.5 mM EDTA, 5 mM MgCl2, pH=7.4.

[7] = biological target: H1 histamine receptor (Homo sapiens, UniProt P35367); assay: H1 histamine receptor radioligand binding assay (3H-pyrilamine)
Chain of H1 histamine receptor (P35367 whole entry): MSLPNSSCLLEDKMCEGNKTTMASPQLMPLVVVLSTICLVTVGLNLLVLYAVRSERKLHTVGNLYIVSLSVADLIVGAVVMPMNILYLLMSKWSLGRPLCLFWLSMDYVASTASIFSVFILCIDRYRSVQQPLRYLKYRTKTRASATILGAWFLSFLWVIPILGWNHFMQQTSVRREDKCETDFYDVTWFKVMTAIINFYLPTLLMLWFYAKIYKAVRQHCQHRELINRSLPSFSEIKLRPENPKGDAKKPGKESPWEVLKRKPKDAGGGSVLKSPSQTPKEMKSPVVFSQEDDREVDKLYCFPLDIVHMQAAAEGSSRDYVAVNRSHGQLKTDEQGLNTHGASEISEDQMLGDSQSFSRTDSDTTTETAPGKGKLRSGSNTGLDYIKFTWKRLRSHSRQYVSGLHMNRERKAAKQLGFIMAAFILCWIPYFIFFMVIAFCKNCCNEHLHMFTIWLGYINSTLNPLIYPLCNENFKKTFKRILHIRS
Experimental: Binding assays were also conducted in which the affinity of selected compounds of interest for the H1 histamine receptor was tested. […] The H1 determinations used ^3H-pyrilamine as the radioligand with chlorpheniramine as the reference compound.

[8] = 3H-pyrilamine radioligand, chlorpheniramine reference, read-out: H1 Ki
[9] = in words, read-out: affinity class for histamine H1 receptor

Structure (SMILES) | Ki [6] [nM] | Ki [7, 8] [nM] | Ki [7, 9] [nM] | also measured
c1ccc2c(c1)Cc1ccccc1C21CCNC1 [Compound 5, Spiro[9,10-dihydroanthracene]-9,3′-pyrrolidine] | 3.8 | 8.5 | ≤ 100 | Ki [1]: 1 to 500 nM; Ki ([1]; read-out: Ki for 5-HT2c receptor): 24 nM; Ki [2]: 1 to 500 nM; Ki ([2]; read-out: Ki for 5-HT2 receptors): 4 nM; Ki [3]: 5040 nM; Ki [4]: > 10000 nM; Ki [5]: > 10000 nM
COc1ccc2c(c1)Cc1ccccc1C21CCN(Cc2ccccc2)C1 (stereo not drawn) [Compound 16, 3-Methoxy-9,9-[spiro-3′-(n-benzyl)-pyrrolidinyl]-9,10-dihydroanthracene] | 1000 | 74 | ≤ 100 | –
COc1ccc2c(c1)Cc1ccccc1C21CCNC1 (stereo not drawn) [Compound 17, 3-Methoxy-9,9-[spiro-3′-pyrrolidinyl]-9,10-dihydro-anthracene] | 3.7 | 40 | ≤ 100 | –
CCCCCCc1ccc2c(c1)Cc1ccccc1C21CCNC1 (stereo not drawn) [Compound 21, 3-n-Hexyl-9,9-[spiro-3′-pyrrolidinyl]-9,10-dihydroanthracene] | 6 | 1600 | – | –
c1ccc2c(c1)Oc1ccccc1C21CCNC1 [Compound 30, Spiro[xanthenyl]-9,3′-pyrrolidine] | 40 | 51 | ≤ 100 | –
c1ccc2c(c1)Sc1ccccc1C21CCNC1 [Compound 36, Spiro[thioxanthenyl]-9,3′-pyrrolidine] | 5 | 6 | ≤ 100 | –

Now from value to compound, other results behind:

Ki [6] [nM] | Structure (SMILES) | Ki [7, 8] [nM] | Ki [7, 9] [nM] | also measured
46 | CN1CCC2(C1)c1ccccc1Cc1ccccc12 [Compound 6, Spiro[9,10-dihydroanthracene]-9,3′-(1-methyl)-pyrrolidine] | – | – | –
220 | c1ccc(CN2CCC3(C2)c2ccccc2Cc2ccccc23)cc1 [Compound 7, Spiro[9,10-dihydroanthracene]-9,3′-(1-benzyl)-pyrrolidine] | – | – | –
68 | CC1(C)c2ccccc2C2(CCNC2)c2ccccc21 [Compound 12, Spiro[-(10,10-dimethyl)-9,10-dihydroanthracene]-9,3′-pyrrolidine] | – | – | –
330 | Oc1ccc2c(c1)Cc1ccccc1C21CCN(Cc2ccccc2)C1 (stereo not drawn) [Compound 18, 3-Hydroxy-9,9-[spiro-3′-(n-benzyl)-pyrrolidinyl]-9,10-dihydroanthracene] | – | – | –
9.2 | Oc1ccc2c(c1)Cc1ccccc1C21CCNC1 (stereo not drawn) [Compound 19, Spiro[-(3-hydroxy)-9,10-dihydroanthracene]-9,3′-pyrrolidine] | – | – | –
2030 | CCCCCCc1ccc2c(c1)Cc1ccccc1C21CCN(Cc2ccccc2)C1 (stereo not drawn) [Compound 20, 3-n-Hexyl-9,9-[spiro-3′-(n-benzyl)-pyrrolidinyl]-9,10-dihydroanthracene] | – | – | –
998 | c1ccc(CCCc2ccc3c(c2)Cc2ccccc2C32CCN(Cc3ccccc3)C2)cc1 (stereo not drawn) [Compound 22, 3-(3-Phenylpropyl)-9,9-[spiro-3′-(n-benzyl)-pyrrolidinyl]-9,10-dihydroanthracene] | – | – | –
3.5 | c1ccc(CCCc2ccc3c(c2)Cc2ccccc2C32CCNC2)cc1 (stereo not drawn) [Compound 23, 3-(3-Phenylpropyl)-9,9-[spiro-3′-pyrrolidinyl]-9,10-dihydroanthracene] | – | – | –
18 | c1ccc(-c2ccc3c(c2)Cc2ccccc2C32CCNC2)cc1 (stereo not drawn) [Compound 25, 3-(3-Phenyl)-9,9-[spiro-3′-pyrrolidinyl]-9,10-dihydroanthracene] | – | – | –
